Values quoted from earlier work, collected in patent US20140113001A1, “ENHANCED ACTIVITY HYDROGEN PEROXIDE DISINFECTANT” (Virox Technologies Inc., priority 2002, published 2014).
Where two headings read alike, the source gives them in different places.

Tested on: Staphylococcus aureus

Question: Which results are given for `OO` [hydrogen peroxide]?
Answer: time required to disinfect surfaces contaminated with staphylococcus aureus (0.1% w/w aqueous solution): 60 min; time required to disinfect surfaces contaminated with staphylococcus aureus (25.8% w/w aqueous solution): 0.333 min
